In brackets after ≈: the same amount, converted by molar mass. Several values for one entry are separate records, joined by “and”; a condition that tells them apart may be missing. Equal values may be shown once.
How the values were obtained:
HIV-1 protease = biological target: T1, HIV-1 protease (Human immunodeficiency virus type 1 group M subtype B, UniProt P04585); assay: Protease inhibition assay (fluorometric); type: biochemical; details: for Protease Inhibition, sample reading: sample 1, sample 2, hydrochloride salt
T1 construct: precludes use of the fluorometric HIV-1 protease assay; purchased Bachem
Method: Protease inhibition is evaluated using a fluorometric method. Enzyme (Bachem) is diluted to 116 μgm/ml in 50 mM NaOAC, 5 mM DTT, 2 mM EDTA, 10% glycerol (pH 5.0) and stored as 10 μl samples at −20° C., HIV protease substrates I (Molecular Probes) is diluted to a working concentration of 0.32 nmoles/μl. Enzyme (20 μl) and drug (20 μl) are added to each well of a microtiter plate as appropriate. Positive and negative controls are evaluated in parallel. Fluorescence is quantitated on Labsystems Fluroskan II using 355 nm/460 nm at 37° C. at time zero and at 30 minute intervals for 2 hours. In instances where autofluorescence precludes use of the fluorometric HIV-1 protease assay or confirmation of a result is required, an HPLC based protease assay can be employed.

HIV-1 integrase = HIV-1 integrase (Human immunodeficiency virus type 1 group M subtype B, UniProt P04585); assay: HIV-1 integrase inhibition assay; type: biochemical; set-up: HIV-1 Integrase Inhibition, sample reading / HIV-1 Integrase Inhibition, mean: unit not given here; details: for HIV-1 Integrase Inhibition, sample reading: sample 1, sample 2, hydrochloride salt
Source text: A biochemical integrase assay described by Craigie et at (HIV, vol. 2: A practical Approach) Biochemistry, Molecular Biology and Drug Discovery, Ed. J. Kam 1995) to screen agents for their ability to inhibit HIV-1 integrase. In this system, a kinased oligonucleotide serves as the target of 3′ processing and the subsequent strand transfer reaction. The 3′ processing reaction involves the removal of 2 nucleotides from the 3′ ends of the substrate and this is followed by the strand transfer reaction in which the 3′ ends are joined to the exposed 5′ ends. The 20 μl reaction mixture contains 25 mM MOPS (pH 7.2), […] BSA, 10 mM β-mercaptoethanol, 10% glycerol, 7.5 mM MnCl2, 25 nM (7 ng) substrate (Oligo's Etc., Wilsonville, Oreg.) and 200 nM (128 ng) integrase (NIAID AIDS Research and Reference Reagent Program, Bethesda, Md.). The reaction proceeds at 37° C. for 1-2 hours and is terminated by the addition of 20 μl of sequencing stop solution (JSB Amersham, Arlington Heights, Ill.). The reaction products are visualized by autoradiography following electrophoresis in 15% polyacrylamide 6M Urea gel. The substrate migrates as a 30 mer, the product of 3′ processing migrates as an N-2 band and the strand transfer products migrate more slowly at various sizes larger than the substrate.

HEPG22.2.15 = assay: Hepatitis B test: toxicity values; type: cell-based
hepatitis B, HEPG22.2.15 = assay: In vitro virus production test of hepatitis B, DNA copy number; type: cell-based
vero cells = test system: vero cells; set-up: unit not given beside the values; details: African green monkey
Cryptococcus neoformans = assay: Anti-fungal activity (NCCLS M-27A based), Cryptococcus neoformans; type: cell-based; details: for MFC data / MFC: cidal level; for MIC data / MIC: growth inhibited or reduced at least 90%; for MFC / MIC: Cryptococcus neoformans
Method: (§1) It was active against cryptococcus neoformans and curvularai lunata. The cidal activity for the C. neoformans is high enough that it is clear […] against this yeast. This test was conducted using a method based upon NCCLS reference method M-27A published in 1997. Solvent, medium and growth controls were set-up with the tests. Once these were read to validate the test performance, the QC fungi were read to insure they had expected results. These steps validated the test system. DMSO was used as a drug-chemical solvent. […] The 90% cut-off is necessary for azoles, which are static and not cidal. The FMC or cidal level was determined by sub-culturing a sample from each tube showing no growth.

Curvularia lunata = assay: Anti-fungal activity (NCCLS M-27A based), Curvularia lunata; type: cell-based; details: growth inhibited or reduced at least 90%; for MIC: Curvularia lunata
Method: as §1

TPA-induced BCBL-1 cells = assay: Kaposi's Sarcoma test: toxicity values; type: cell-based; set-up: Toxicity Values, samples 1-3 / Toxicity Values, average: scale not given here
Method: (§2) The DNA copy number and the toxicity value were measured and compared with Cidofovir.

[1] = test system: HHV8 cell line, TPA-induced BCBL-1 cells; assay: Kaposi's Sarcoma (HHV8) in vitro test, DNA copy number; type: cell-based
Method: as §2

## Cl.c1csc(-c2nc3ncccc3[nH]2)c1 [2-(2-thienyl)-imidazolo [4,5-b]pyridine hydrochloride salt]
HIV-1 protease; 1 nM
  Protease Inhibition, mean: 26.3
  Protease Inhibition, sample reading: 29.9 and 22.6
HIV-1 protease; 10 nM
  Protease Inhibition, mean: 35.0
  Protease Inhibition, sample reading: 36.0 and 34.1
HIV-1 protease; 100 nM
  Protease Inhibition, mean: 84.8
  Protease Inhibition, sample reading: 85.4 and 84.2
HIV-1 protease; 1000 nM
  Protease Inhibition, mean: 247.3
  Protease Inhibition, sample reading: 245.7 and 248.8
HIV-1 integrase
  EC50: > 421 µM
HIV-1 integrase; 0.1 μg/ml
  HIV-1 Integrase Inhibition, mean: 9144
  HIV-1 Integrase Inhibition, sample reading: 9338.5 and 8948.8
HIV-1 integrase; 1 μg/ml
  HIV-1 Integrase Inhibition, mean: 12194
  HIV-1 Integrase Inhibition, sample reading: 11838.2 and 12550.7
HIV-1 integrase; 10 μg/ml
  HIV-1 Integrase Inhibition, mean: 12299
  HIV-1 Integrase Inhibition, sample reading: 10848.3 and 13750.3
HIV-1 integrase; 100 μg/ml
  HIV-1 Integrase Inhibition, mean: 10570
  HIV-1 Integrase Inhibition, sample reading: 10212.5 and 10928.4

## Nc1ccn([C@@H]2CS[C@H](CO)O2)c(=O)n1 [3TC, lamivudine]
HEPG22.2.15; 0.0032 μg/ml
  Toxicity Values, % cell control: 90.8%
  Toxicity Values, mean: 1.137
  Toxicity Values, samples 1-3: 1.009 and 1.173 and 1.230
HEPG22.2.15; 0.01 μg/ml
  Toxicity Values, % cell control: 84.6%
  Toxicity Values, mean: 1.060
  Toxicity Values, samples 1-3: 1.001 and 1.081 and 1.099
HEPG22.2.15; 0.032 μg/ml
  Toxicity Values, % cell control: 94.3%
  Toxicity Values, mean: 1.181
  Toxicity Values, samples 1-3: 1.074 and 1.153 and 1.316
HEPG22.2.15; 0.1 μg/ml
  Toxicity Values, mean: 1.190
  Toxicity Values, samples 1-3: 1.151 and 1.220 and 1.200
HEPG22.2.15; 0.32 μg/ml
  Toxicity Values, % cell control: 93.6%
  Toxicity Values, mean: 1.172
  Toxicity Values, samples 1-3: 1.082 and 1.207 and 1.227
HEPG22.2.15; 1 μg/ml
  Toxicity Values, % cell control: 106.5%
  Toxicity Values, mean: 1.334
  Toxicity Values, samples 1-3: 1.423 and 1.256 and 1.322
HEPG22.2.15; first experiment
  TC50: > 1 µg/mL
HEPG22.2.15; replicate experiment
  TC50: > 1 µg/mL
Hepatitis B, HEPG22.2.15; 0.0032 μg/ml
  DNA Copy Number, % virus control: 97.8%
  DNA Copy Number, mean: 280.4 per 3 μl
  DNA Copy Number, samples 1-3: 265.4 per 3 μl and 328.0 per 3 μl and 247.9 per 3 μl
Hepatitis B, HEPG22.2.15; 0.01 μg/ml
  DNA Copy Number, % virus control: 87.8%
  DNA Copy Number, mean: 251.7 per 3 μl
  DNA Copy Number, samples 1-3: 286.1 per 3 μl and 276.7 per 3 μl
Hepatitis B, HEPG22.2.15; 0.032 μg/ml
  DNA Copy Number, % virus control: 80.4%
  DNA Copy Number, mean: 230.4 per 3 μl
  DNA Copy Number, samples 1-3: 243.2 per 3 μl and 255.3 per 3 μl
Hepatitis B, HEPG22.2.15; 0.1 μg/ml
  DNA Copy Number, % virus control: 24.2%
  DNA Copy Number, mean: 69.4 per 3 μl
  DNA Copy Number, samples 1-3: 73.0 per 3 μl and 74.8 per 3 μl and 60.5 per 3 μl
Hepatitis B, HEPG22.2.15; 0.32 μg/ml
  DNA Copy Number, % virus control: 13.1%
  DNA Copy Number, mean: 46.1 per 3 μl
  DNA Copy Number, samples 1-3: 36.7 per 3 μl and 45.1 per 3 μl and 56.5 per 3 μl
Hepatitis B, HEPG22.2.15; 1 μg/ml
  DNA Copy Number, % virus control: 1.4%
  DNA Copy Number, mean: 4.0 per 3 μl
Hepatitis B, HEPG22.2.15; HepG2 2.2.15, first experiment
  IC50: 0.089 µg/mL (≈ 0.388 µM)
Hepatitis B, HEPG22.2.15; HepG2 2.2.15, replicate experiment
  IC50: 0.021 µg/mL (≈ 0.0916 µM)

## Nc1nc2c(ncn2COCCO)c(=O)[nH]1 [Acyclovir]
Vero cells
  TC50: > 1

## C[C@@H]1[C@H](O)[C@@H](C)/C=C/C=C/C=C/C=C/C=C/C=C/C=C/[C@H](O[C@@H]2O[C@H](C)[C@@H](O)[C@H](N)[C@@H]2O)C[C@@H]2O[C@](O)(C[C@@H](O)C[C@@H](O)[C@H](O)CC[C@@H](O)C[C@@H](O)CC(=O)O[C@H]1C)C[C@H](O)[C@H]2C(=O)O [AmB, amphotericin B]
Cryptococcus neoformans
  MFC data: 1 µg/mL (≈ 1.08 µM)
  MIC data: 0.25 µg/mL (≈ 0.271 µM)
Curvularia lunata
  MIC data: 0.03 µg/mL (≈ 0.0325 µM)

## Nc1ccn(C[C@@H](CO)OCP(=O)(O)O)c(=O)n1 [Cidofovir, reference compound]
TPA-induced BCBL-1 cells; 0.08 μM
  Toxicity Values, % cell control: 83.9%
  Toxicity Values, average: 0.814
  Toxicity Values, samples 1-3: 0.864 and 0.797 and 0.780
TPA-induced BCBL-1 cells; 0.25 μM
  Toxicity Values, % cell control: 90.1%
  Toxicity Values, average: 0.874
  Toxicity Values, samples 1-3: 0.867 and 0.819 and 0.934
TPA-induced BCBL-1 cells; 0.8 μM
  Toxicity Values, % cell control: 82.8%
  Toxicity Values, average: 0.803
  Toxicity Values, samples 1-3: 0.824 and 0.770 and 0.814
TPA-induced BCBL-1 cells; 2.5 μM
  Toxicity Values, % cell control: 75.0%
  Toxicity Values, average: 0.728
  Toxicity Values, samples 1-3: 0.794 and 0.684 and 0.704
TPA-induced BCBL-1 cells; 8 μM
  Toxicity Values, % cell control: 69.3%
  Toxicity Values, average: 0.672
  Toxicity Values, samples 1-3: 0.639 and 0.700 and 0.677
TPA-induced BCBL-1 cells; 25 μM
  Toxicity Values, % cell control: 4403%
  Toxicity Values, average: 0.430
  Toxicity Values, samples 1-3: 0.443 and 0.398 and 0.447
[1]; 0.08 μM
  DNA Copy Number, % virus control: 95.3%
  DNA Copy Number, average: 8478.0 per 3 μl
  DNA Copy Number, samples 1-3: 8485.1 per 3 μl and 7948.1 per 3 μl and 9000.8 per 3 μl
[1]; 0.25 μM
  DNA Copy Number, % virus control: 75.0%
  DNA Copy Number, average: 6666.9 per 3 μl
  DNA Copy Number, samples 1-3: 6668.9 per 3 μl and 6336.3 per 3 μl and 6995.5 per 3 μl
[1]; 0.8 μM
  DNA Copy Number, % virus control: 57.5%
  DNA Copy Number, average: 5108.6 per 3 μl
[1]; 2.5 μM
  DNA Copy Number, % virus control: 14.3%
  DNA Copy Number, average: 1276.9 per 3 μl
  DNA Copy Number, samples 1-3: 1329.8 per 3 μl and 1198.3 per 3 μl and 1275.7 per 3 μl
[1]; 8 μM
  DNA Copy Number, % virus control: 0.0%
  DNA Copy Number, average: 3.0 per 3 μl
[1]; 25 μM
  DNA Copy Number, % virus control: 0.0%
  DNA Copy Number, average: 0.0 per 3 μl
  DNA Copy Number, samples 1-3: 0 per 3 μl and 0.0 per 3 μl
[1]; Human gammaherpesvirus 8, BCBL1
  IC50: 1100 nM

## CCC(C)n1ncn(-c2ccc(N3CCN(c4ccc(OCC5COC(Cn6cncn6)(c6ccc(Cl)cc6Cl)O5)cc4)CC3)cc2)c1=O (stereo not shown) [Itra, Itraconazole]
Cryptococcus neoformans
  MFC: > 32 µg/mL
  MIC: 0.03 µg/mL (≈ 0.0425 µM)
Curvularia lunata
  MIC: 0.03 µg/mL (≈ 0.0425 µM)

## c1ccc2[nH]c(-c3cscn3)nc2c1 [Thia, thiabendazole]
Cryptococcus neoformans
  MFC: > 32 µg/mL
  MIC: 16 µg/mL (≈ 79.5 µM)
Curvularia lunata
  MIC: ≥ 32 µg/mL

## methyl 1,2- benzimidazole carbamate or benomyl
Cryptococcus neoformans
  MFC data: >32 µg/mL
  MIC data: 8 µg/mL
Curvularia lunata
  MIC data: 0.06 µg/mL

— patent publication US20030232851A1, “Viral treatment” (The Procter & Gamble Company, priority 1999, published 2003)
